In patent US11964976B1, “Substituted pyrido[3′,4′:4,5]pyrrolo[3,2-c][1,6]naphthyridines as CK2 inhibitors” (KING FAISAL UNIVERSITY, priority 2023, dated 2024):

Key:
HCT116 (colon) = experiment: In vitro cytotoxic activity (MTT) assay, HCT116; type: cell-based; conditions: Homo sapiens, HCT-116; HCT116 (colon) cells, exposed for 96 hours; read-out: IC50, concentration eliciting 50% inhibition of cell proliferation
Method: (§1) Compounds 1-15 were screened for their in vitro cytotoxic activity utilizing a 3-(4,5-dimethyl-thiazol-2-yl)-2,5-diphenyltetrazolium bromide (MTT) assay against selected cancer human cell lines consisting of PC3 (prostate), HCT116 (colon), A375 (melanoma), H1299 (lung), MIAPaCa-2 (pancreas), HL60 (leukemia), MCF7 (breast), MDA-MB-231 (breast) (T. Mosmann, J. Immunol. Meth., 1983, 65, 55-63). The cells were cultured at 37° C. in RMPI1640 medium supplemented with 10% fetal bovine serum, 50 IU/mL penicillin, and 50 μg/mL streptomycin in a 5% CO2 incubator. All cells were sub-cultured 3 times/week by trypsinisation. Viable cells were seeded and allowed to adhere for 12 h before a test drug was added in 96-well plates at an initial density of 1.0×10^5 cells/mL. Tumor cell lines were separately exposed to various concentrations of the tested compounds followed by incubation at a temperature of 37° C. during 96 hours inside a medium of fresh RMPI 1640. Cells were subsequently incubated at 37° C. using MTT at 0.5 mg/mL during 4 hours. After removal of supernatant, formazan crystals were dissolved in isopropanol and the optical density was measured at 570 nm. CX-4945 was used as a positive control.

HL60 (leukemia) = experiment: In vitro cytotoxic activity (MTT) assay, HL60; type: cell-based; conditions: Homo sapiens, HL-60; HL60 (leukemia) cells, exposed for 96 hours; read-out: IC50, concentration eliciting 50% inhibition of cell proliferation
Method: as §1

MCF7 (breast) = experiment: In vitro cytotoxic activity (MTT) assay, MCF7; type: cell-based; conditions: Homo sapiens; MCF7 (breast) cells, exposed for 96 hours; read-out: IC50, concentration eliciting 50% inhibition of cell proliferation
Method: as §1

[1] = target: T1, recombinant human CK2 (RRββ-holoenzyme) (Homo sapiens, UniProt P68400); experiment: CK2 Kinase Assay (33P-ATP, filter plate); type: biochemical; conditions: final ATP concentration 15 μM, 10 min at 30° C.; read-out: protein kinase CK2 IC50
T1 construct: purchased Millipore
Method: CK2 Kinase Assay was conducted using the protocol as described in Pierre F. et al; J. Med. Chem. 2011, 54, 635-654. The tested compounds in aqueous solution were added at a volume of 10 μL to a reaction mixture comprising 10 μL of assay dilution buffer (ADB; 20 mM MOPS, pH 7.2, 25 mM β-glycerol phosphate, 5 mM EGTA, 1 mM sodium orthovanadate, and 1 mM dithiothreitol), 10 μL of substrate peptide (RRRDDDSDDD, dissolved in ADB at a concentration of 1 mM), 10 μL of recombinant human CK2 (RRββ-holoenzyme, 25 ng dissolved in ADB; Millipore). Reactions were initiated by the addition of 10 μL of ATP solution (90% 75 mMMgCl2, 75 μM ATP (final ATP concentration: 15 μM) dissolved in ADB; 10% [γ-33P] ATP (stock 1mCi/100 μL; 3000 Ci/mmol (Perkin-Elmer) and maintained for 10 min at 30° C. The reactions were quenched with 100 μL of 0.75% phosphoric acid and then transferred to and filtered through a phosphor cellulose filter plate (Millipore). After washing each well five times with 0.75% phosphoric acid, the plate was dried under vacuum for 5 min and, following the addition of 15 μL of scintillation fluid to each well, the residual radioactivity was measured using a Wallac luminescence counter. The IC50 values were derived from eight concentrations of test inhibitors.

A375 (melanoma) = experiment: In vitro cytotoxic activity (MTT) assay, A375; type: cell-based; conditions: Homo sapiens, A-375; A375 (melanoma) cells, exposed for 96 hours; read-out: IC50, concentration eliciting 50% inhibition of cell proliferation
Method: as §1

MIAPaCa-2 (pancreas) = experiment: In vitro cytotoxic activity (MTT) assay, MIAPaCa-2; type: cell-based; conditions: Homo sapiens, MIA PaCa-2; MIAPaCa-2 (pancreas) cells, exposed for 96 hours; read-out: IC50, concentration eliciting 50% inhibition of cell proliferation
Method: as §1

PC3 (prostate) = experiment: In vitro cytotoxic activity (MTT) assay, PC3; type: cell-based; conditions: Homo sapiens, Prostate cell; PC3 (prostate) cells, exposed for 96 hours; read-out: IC50, concentration eliciting 50% inhibition of cell proliferation
Method: as §1

H1299 (lung) = experiment: In vitro cytotoxic activity (MTT) assay, H1299; type: cell-based; conditions: Homo sapiens, NCI-H1299; H1299 (lung) cells, exposed for 96 hours; read-out: IC50, concentration eliciting 50% inhibition of cell proliferation
Method: as §1

MDA-MB-231 (breast) = experiment: In vitro cytotoxic activity (MTT) assay, MDA-MB-231; type: cell-based; conditions: Homo sapiens; MDA-MB-231 (breast) cells, exposed for 96 hours; read-out: IC50, concentration eliciting 50% inhibition of cell proliferation
Method: as §1

T1 sequence (P68400 whole entry): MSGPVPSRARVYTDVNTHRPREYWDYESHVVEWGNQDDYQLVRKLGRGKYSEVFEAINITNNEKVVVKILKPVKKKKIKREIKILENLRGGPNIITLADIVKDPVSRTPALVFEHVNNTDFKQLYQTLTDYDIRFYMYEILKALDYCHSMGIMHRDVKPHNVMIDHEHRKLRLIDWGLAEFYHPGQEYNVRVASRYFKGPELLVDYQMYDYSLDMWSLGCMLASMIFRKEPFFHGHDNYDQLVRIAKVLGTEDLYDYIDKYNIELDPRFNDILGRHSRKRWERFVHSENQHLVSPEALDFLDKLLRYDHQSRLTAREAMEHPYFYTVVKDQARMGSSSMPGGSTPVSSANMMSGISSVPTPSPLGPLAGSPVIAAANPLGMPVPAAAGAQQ
T1 sequence (P67870 whole entry partner): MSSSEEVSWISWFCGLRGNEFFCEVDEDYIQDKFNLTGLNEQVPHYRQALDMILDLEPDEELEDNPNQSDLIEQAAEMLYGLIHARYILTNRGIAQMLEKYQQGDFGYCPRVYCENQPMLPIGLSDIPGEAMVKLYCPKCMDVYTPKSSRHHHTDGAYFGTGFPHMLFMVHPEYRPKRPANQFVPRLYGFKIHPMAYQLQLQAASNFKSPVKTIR

Work on `Clc1cccc(Nc2nc3ccncc3c3[nH]c4ccncc4c23)c1` [Compound 1, N-(3-chlorophenyl)-11H-pyrido[3′,4′:4,5]pyrrolo[3,2-c][1,6]naphthyridin-6-amine] yielded an IC50 (HCT116 (colon)) of 1300 nM, an IC50 (HL60 (leukemia)) of 3500 nM and an IC50 (MCF7 (breast)) of 3100 nM. The IC50 [1] was 29 nM, the IC50 (A375 (melanoma)) was 4400 nM and the IC50 (MIAPaCa-2 (pancreas)) was 1100 nM. The IC50 (PC3 (prostate)) was 1000 nM, the IC50 (H1299 (lung)) was 1200 nM and the IC50 (MDA-MB-231 (breast)) was 2600 nM.
